# Results as given in BindingDB's records for doi:10.1021/jm0201417 (University of Southern California, 2002).
# Experiments:
# [1] = Effective concentration of the compound against viral replication by Reverse transcriptase
# [2] = Inhibitory activity against viral attachment
Compound,EC50 [1],IC50 [2]
"O=C1NNC(=O)c2ccccc2SSc2ccccc2C(=O)NNC(=O)c2ccccc2SSc2ccccc21 [11,12,13,14,25,26,27,28-octahydrotetrabenzo[c,i,m,s][1,2,11,12,6,7,16,17]tetrathiatetraazacycloicosine-11,14,25,28-tetraone]",6 µM,–
O=C(NNC(=O)c1ccccc1SSc1ccccc1C(=O)NNC(=O)c1ccccc1S)c1ccccc1S [Compound 3],17.8 µM,> 100 µM
O=C(NNC(=O)c1ccccc1S)c1ccccc1S [2-Mercapto-benzoic acid N'-(2-mercapto-benzoyl)-hydrazide],4.3 µM,> 100 µM
